# Measurements taken from patent US10000473B2, “Indazole derivatives useful as glucagon receptor antagonists” (Janssen Pharmaceutica NV, priority 2016, dated 2018).
# Target: T1, human GCGR (Homo sapiens, UniProt P47871)
# T1 construct: expressed in transfected cells; host or cells: HEK293 (hGluc-1HEK), pcDNA3.1, G418 selection
# Test: Cellular functional assay, cAMP readout (glucagon-stimulated cAMP, LANCE TR-FRET)
# Assay type: cell-based
# Details: HEK293 cells stably expressing full-length human GCGR; glucagon 100 pM; IC50 converted to Ki; read-out: Inhibition of cAMP Ki
# Experimental: IC50 Values in Cellular Functional Assays: cAMP Readout
# Full-length human GCGR (Accession Number: NM000160) subcloned into pcDNA3.1 was stably transfected into HEK293 cells (hGluc-1HEK) and maintained under G418 selection (500 μg/mL). Cell cultures were maintained in DMEM/F12 media supplemented with 10% FBS and 1% GlutaMax™ Supplement (Available from ThermoFisher Scientific, catalog #35050061). Glucagon stimulated cAMP was quantified using LANCE technology as per manufacturer instructions. On the day of the experiment, spent media was removed and cells were washed with Hank's Buffered Saline solution (HBSS), and cells harvested with non-enzymatic cell dissociation solution, then washed once with HBSS. Cells were re-suspended in stimulation buffer at a concentration of 0.83×10^6 cells/ml and cAMP detection antibody was added. 6 μl/well of this solution was then dispensed in a 384 well plate (cell density 5000 cells/well). Test compound was serially diluted in DMSO and 50 nl were dispensed on top of the cell solution and allowed to incubate for 30 minutes. 6 μl of a 2× glucagon solution (final concentration in assay 100 pM) was then added and the reaction was terminated after 5 minutes with the addition of detection mix. The resulting mixture was incubated, protected from light for 1.5 h. cAMP levels were quantified by TR-FRET in an EnVision instrument against a known standard. IC50's were generated by using a non-linear regression macro driven in Excel and converted to Ki values.
# T1 sequence (P47871 26-477): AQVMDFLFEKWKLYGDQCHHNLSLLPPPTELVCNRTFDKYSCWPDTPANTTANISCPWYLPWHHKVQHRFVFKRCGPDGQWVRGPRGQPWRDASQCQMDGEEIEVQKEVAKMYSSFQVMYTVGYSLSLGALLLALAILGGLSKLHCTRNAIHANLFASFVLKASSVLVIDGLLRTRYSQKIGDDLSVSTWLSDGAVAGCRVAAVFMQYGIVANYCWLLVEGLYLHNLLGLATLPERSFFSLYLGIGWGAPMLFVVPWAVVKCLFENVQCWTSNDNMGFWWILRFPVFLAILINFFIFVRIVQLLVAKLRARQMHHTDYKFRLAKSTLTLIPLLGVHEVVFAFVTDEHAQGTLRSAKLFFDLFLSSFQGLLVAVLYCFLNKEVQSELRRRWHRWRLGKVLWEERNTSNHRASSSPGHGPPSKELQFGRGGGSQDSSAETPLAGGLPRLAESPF
row,Ki [nM],Structure (SMILES)
1,9,"Cc1cc(C(F)(F)F)ccc1-c1ccc2nn(C(CC(C)C)c3ccc(C(=O)NCCC(=O)O)nc3)cc2c1C (stereo not drawn) [Compound #155, 3-(5-(3-Methyl-1-(4-methyl-5-(2-methyl-4-(trifluoromethyl)phenyl)-2H-indazol-2-yl)butyl)picolinamido)propanoic acid]"
2,700,"O=C(O)CCNC(=O)c1ccc(C(CCC(F)(F)F)n2ncc3cc(-c4ccc(OC(F)(F)F)cc4)ccc32)cc1 (stereo not drawn) [Compound #76, 3-[[4-[4,4,4-Trifluoro-1-[5-[4-(trifluoromethoxy)phenyl]indazol-1-yl]butyl]benzoyl]amino]propanoic acid]"
3,470,CC(C)CC(c1ccc(C(=O)NCCC(=O)O)nc1)n1ncc2cc(-c3cc4ccccc4s3)ccc21 (stereo not drawn) [compound 48]
4,485,"Cc1ccc(-c2ccc3c(cnn3C(CC(C)C)c3ccc(C(=O)NCCC(=O)O)cc3)c2C)c(C)c1 (stereo not drawn) [Compound #177, 3-(4-(1-(5-(2,4-Dimethylphenyl)-4-methyl-1H-indazol-1-yl)-3-methylbutyl)benzamido)propanoic acid]"
5,62,CC(C)CC(c1ccc(C(=O)NCCC(=O)O)cc1)n1ncc2cc(-c3cc4ccccc4s3)ccc21 (stereo not drawn) [compound 73]
6,210,Cc1cc(Cl)ccc1-c1ccc2c(cnn2C(CC2CCCCC2)c2ccc(C(=O)NCCC(=O)O)cc2)c1 (stereo not drawn) [compound 194]
7,86,"CC(C)CC(c1ccc(C(=O)NCCC(=O)O)cc1)n1cc2cc(-c3ccc(C(C)(C)C)cc3)ccc2n1 (stereo not drawn) [Compound #34, 3-(4-(1-(5-(4-(tert-butyl)phenyl)-2H-indazol-2-yl)-3-methylbutyl)benzamido)propanoic acid]"
8,> 1300,"O=C(O)CCNC(=O)c1ccc(C(CCC(F)(F)F)n2ncc3cc(-c4ccc(C(F)(F)F)c(Cl)c4)ccc32)cc1 (stereo not drawn) [Compound #111, 3-[[4-[1-[5-[3-Chloro-4-(trifluoromethyl)phenyl]indazol-1-yl]-4,4,4-trifluorobutyl]benzoyl]amino]propanoic acid]"
9,240,O=C(O)CCNC(=O)c1ccc(C(CCC(F)(F)C(F)(F)F)n2cc3cc(-c4ccc(C(F)(F)F)cc4)ccc3n2)cc1 (stereo not drawn) [compound 65]
10,37,Cc1cc(Cl)ccc1-c1ccc2nn(C(CCC3CCCCC3)c3ccc(C(=O)NCCC(=O)O)cc3)cc2c1 (stereo not drawn) [compound 247]
11,191,Cc1cc(Cl)ccc1-c1ccc2nn(C(CC(C)C)c3ccc(C(=O)NCCC(=O)O)cc3)cc2c1 (stereo not drawn) [Compound #168]
12,500,"CC(C)CC(c1ccc(C(=O)NCCC(=O)O)nc1)n1ncc2cc(-c3cc4ccccc4o3)ccc21 (stereo not drawn) [Compound #79, 3-(5-(1-(5-(Benzofuran-2-yl)-1H-indazol-1-yl)-3-methylbutyl)picolinamido)propanoic acid]"
13,210,"Cc1cc(Cl)ccc1-c1ccc2c(cnn2C(CC(C)C)c2ccc(C(=O)NCCC(=O)O)cc2)c1 (stereo not drawn) [Compound #39, 3-(4-(1-(5-(4-Chloro-2-methylphenyl)-1H-indazol-1-yl)-3-methylbutyl)benzamido)propanoic acid]"
14,12,"COc1c(-c2ccc(C(F)(F)F)cc2C)ccc2nn(C(CC(C)C)c3ccc(C(=O)NCCC(=O)O)nc3)cc12 (stereo not drawn) [Compound #236, 3-(5-(1-(4-Methoxy-5-(2-methyl-4-(trifluoromethyl)phenyl)-2H-indazol-2-yl)-3-methylbutyl)picolinamido)propanoic acid]"
15,42,"Cc1c(-c2ccc(C(F)(F)F)cc2Cl)ccc2c1cnn2[C@@H](CC(C)C)c1ccc(C(=O)NCCC(=O)O)cc1 [Compound #241, (S)-3-(4-(1-(5-(2-Chloro-4-(trifluoromethyl)phenyl)-4-methyl-1H-indazol-1-yl)-3-methylbutyl)benzamido)propanoic acid]"
16,310,O=C(O)CCNC(=O)c1ccc(C(CC2CCCC2)n2ncc3cc(-c4ccc(C(F)(F)F)cc4)ccc32)cn1 (stereo not drawn) [compound 199]
17,88,CC(C)CC(c1ccc(C(=O)NCCC(=O)O)cc1)n1cc2cc(-c3cc4cc(F)ccc4s3)ccc2n1 (stereo not drawn) [compound 129]
18,750,CC(C)CC(c1ccc(C(=O)NCCC(=O)O)cc1)n1ncc2cc(-c3cnc4ccccc4c3)ccc21 (stereo not drawn) [compound 46]
19,> 5200,"Cc1cc(C(F)(F)F)ccc1-c1ccc2nn(C(CC(C)C)c3ccc(C(=O)NCCC(=O)O)nc3)cc2c1C(F)(F)F (stereo not drawn) [Compound #246, 3-(5-(3-Methyl-1-(5-(2-methyl-4-(trifluoromethyl)phenyl)-4-(trifluoromethyl)-2H-indazol-2-yl)butyl)picolinamido)propanoic acid]"
20,115,"CC(C)CC(c1ccc(C(=O)NCCC(=O)O)cc1)n1ncc2c(Cl)c(-c3ccc(C(F)(F)F)cc3Cl)ccc21 (stereo not drawn) [Compound #141, 3-(4-(1-(4-Chloro-5-(2-chloro-4-(trifluoromethyl)phenyl)-1H-indazol-1-yl)-3-methylbutyl)benzamido)propanoic acid]"

row,Ki [nM],Structure (SMILES)
1,800,"CCCC(c1ccc(C(=O)NCCC(=O)O)cc1)n1cc2cc(-c3ccc(C(C)(C)C)cc3)ccc2n1 (stereo not drawn) [Compound #22, 3-(4-(1-(5-(4-(tert-Butyl)phenyl)-2H-indazol-2-yl)butyl)benzamido)propanoic acid]"
2,300,CCCC(c1ccc(C(=O)NCCC(=O)O)cc1)n1ncc2cc(-c3ccc(C(F)(F)F)cc3)ccc21 (stereo not drawn) [compound 60]
3,85,"CC(C)C[C@@H](c1ccc(C(=O)NCCC(=O)O)cc1)n1ncc2cc(-c3ccc(C(F)(F)F)cc3Cl)ccc21 [Compound #90, 3-[[4-[(1S)-1-[5-[2-Chloro-4-(trifluoromethyl)phenyl]indazol-1-yl]-3-methyl-butyl]benzoyl]amino]propanoic acid]"
4,350,Cc1cc(Cl)ccc1-c1ccc2c(cnn2C(CC2CCCCC2)c2ccc(C(=O)NCCC(=O)O)nc2)c1 (stereo not drawn) [compound 183]
5,22,"COc1c(-c2ccc(C(F)(F)F)cc2C)ccc2c1cnn2[C@@H](CC(C)C)c1ccc(C(=O)NCCC(=O)O)cc1 [Compound #192, 3-[[4-[(1S)-1-[4-Methoxy-5-[2-methyl-4-(trifluoromethyl)phenyl]indazol-1-yl]-3-methyl-butyl]benzoyl]amino]propanoic acid]"
6,245,CCCCCC(c1ccc(C(=O)NCCC(=O)O)cc1)n1cc2cc(-c3ccc(C(C)(C)C)cc3)ccc2n1 (stereo not drawn) [compound 170]
7,90,CC(C)(C)CC(c1ccc(C(=O)NCCC(=O)O)nc1)n1cc2cc(-c3ccc(C(F)(F)F)cc3)ccc2n1 (stereo not drawn) [compound 212]
8,75,"COc1c(-c2ccc(C(F)(F)F)cc2C)ccc2c1cnn2C(CC(C)C)c1ccc(C(=O)NCCC(=O)O)nc1 (stereo not drawn) [Compound #213, 3-(5-(1-(4-Methoxy-5-(2-methyl-4-(trifluoromethyl)phenyl)-1H-indazol-1-yl)-3-methylbutyl)picolinamido)propanoic acid]"
9,58,CC(C)CC(c1ccc(C(=O)NCCC(=O)O)cc1)n1cc2cc(-c3cc4ccccc4s3)ccc2n1 (stereo not drawn) [compound 120]
10,135,"CC(C)CC(c1ccc(C(=O)NCCC(=O)O)nc1)n1cc2cc(-c3cc4ccccc4o3)ccc2n1 (stereo not drawn) [Compound #260, 3-(5-(1-(5-(Benzofuran-2-yl)-2H-indazol-2-yl)-3-methylbutyl)picolinamido)propanoic acid]"
11,50,"Cc1cc(C(F)(F)F)ccc1-c1cc2cn(C(CC(C)C)c3ccc(C(=O)NCCC(=O)O)nc3)nc2cc1Cl (stereo not drawn) [Compound #176, 3-[[5-[1-[6-Chloro-5-[2-methyl-4-(trifluoromethyl)phenyl]indazol-2-yl]-3-methyl-butyl]pyridine-2-carbonyl]amino]propanoic acid]"
12,13,"Cc1c(-c2ccc(C(F)(F)F)cc2Cl)ccc2nn(C(CC(C)C)c3ccc(C(=O)NCCC(=O)O)nc3)cc12 (stereo not drawn) [Compound #154, 3-(5-(1-(5-(2-Chloro-4-(trifluoromethyl)phenyl)-4-methyl-2H-indazol-2-yl)-3-methylbutyl)picolinamido)propanoic acid]"
13,365,Cc1cc(Cl)ccc1-c1ccc2c(cnn2C(CCC2CCCCC2)c2ccc(C(=O)NCCC(=O)O)nc2)c1 (stereo not drawn) [compound 210]
14,650,O=C(O)CCNC(=O)c1ccc(C(CC2CCC2)n2ncc3cc(-c4ccc(C(F)(F)F)cc4)ccc32)cn1 (stereo not drawn) [compound 251]
15,80,O=C(O)CCNC(=O)c1ccc(C(CCc2ccc(Cl)cc2)n2cc3cc(-c4ccc(C(F)(F)F)cc4)ccc3n2)cc1 (stereo not drawn) [compound 200]
16,150,"CC(C)CC(c1ccc(C(=O)NCCC(=O)O)cc1)n1cc2cc(-c3ccc(C(F)(F)F)cc3Cl)ccc2n1 (stereo not drawn) [Compound #225, 3-(4-(1-(5-(2-Chloro-4-(trifluoromethyl)phenyl)-2H-indazol-2-yl)-3-methylbutyl)benzamido)propanoic acid]"
17,245,"CC(C)CC(c1ccc(C(=O)NCCC(=O)O)cc1)n1ncc2c(Cl)c(-c3ccc(C(F)(F)F)cc3)ccc21 (stereo not drawn) [Compound #67, 3-(4-(1-(4-Chloro-5-(4-(trifluoromethyl)phenyl)-1H-indazol-1-yl)-3-methylbutyl)benzamido)propanoic acid]"
18,550,O=C(O)CCNC(=O)c1ccc(C(CC2CCCCC2)n2ncc3cc(-c4ccc(C(F)(F)F)cc4)ccc32)cn1 (stereo not drawn) [compound 255]
19,135,CC(C)CC(c1ccc(C(=O)NCCC(=O)O)cc1)n1ncc2cc(-c3cc4ccccc4o3)ccc21 (stereo not drawn) [compound 77]
